Test results: ChEMBL document CHEMBL4371042, “Molecular Mechanism of Inhibition of Acid Ceramidase by Carmofur” (J Med Chem, 2019)

Biological target: T1, Acid ceramidase (Homo sapiens, UniProt Q13510)
T1 sequence (Q13510 whole entry): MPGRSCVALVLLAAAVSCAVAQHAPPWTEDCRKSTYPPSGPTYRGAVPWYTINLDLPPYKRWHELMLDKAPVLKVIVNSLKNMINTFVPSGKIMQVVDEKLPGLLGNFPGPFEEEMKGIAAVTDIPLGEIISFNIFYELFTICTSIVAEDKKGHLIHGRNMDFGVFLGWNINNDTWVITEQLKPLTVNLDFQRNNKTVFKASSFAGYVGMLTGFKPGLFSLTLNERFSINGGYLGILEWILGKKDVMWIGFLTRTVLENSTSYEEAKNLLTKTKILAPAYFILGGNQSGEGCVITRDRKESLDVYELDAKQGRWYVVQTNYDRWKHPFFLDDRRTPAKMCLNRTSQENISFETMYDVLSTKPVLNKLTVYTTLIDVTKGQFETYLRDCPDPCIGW
Assay: Non-competitive inhibition of human acid ceramidase

O=C(NCCCCc1ccccc1)n1c(=O)oc2ccccc21
Ki: 0.064 µM
